According to publication PMC6423280, “New Therapeutic Approach for Targeting Hippo Signalling Pathway” (Scientific Reports, 2019):
Peptide text beside a SMILES is read from it.

Tests used:
[1] = design: species or system C3H/S-strain mice; settings: mouse, in vivo
Description: Figure 8 NLS18-TEAD has anti-tumoral effect on breast cancer xenograft models. (a) C3H/S-strain mice subcutaneously inoculated with 4 × 10^5 TN60-UNLP cells were intraperitoneally treated with 5 mg/kg of NLS18-TEAD or NLS23-TEAD 5 days per week for 4 weeks. Control mice received NaCl. Tumor growth was monitored each other day. The average tumor volume of each group (8 mice per group) is shown (p < 0.018). (b) The weight of the animals and the organs upon 30 days of treatment with the peptides NLS18-TEAD or NLS23-TEAD is shown. Control non-treated mice are also shown. p and t statistic values are shown. […]

[2] = Peptide integrity in human serum (resistance to proteases degradation); assay type: in vitro ADME; settings: human serum 250 μl, 37 °C, different times, upon 6 h; MALDI-TOF MS; triplicate
Description: Figure 7 Stability of the new generated peptides in human serum. Peptides were incubated at 37 °C in human serum for different periods of time and their integrity (percentage of intact peptide) was analyzed by mass spectrometry (MS). Every measurement was performed in triplicate. Standard deviation is shown.
Peptides were incubated at 37 °C in 250 μl of human serum for several times. Samples were collected and peptide degradation stopped by freezing. Peptides were extracted from samples using the Proteo Miner Protein Enrichment System (Bio-Rad, California, USA). Percentage of intact peptide was estimated by mass spectrometry (MS) using MALDI-TOFF (Brucker Autoflex II, Massachusetts, USA) following their protocols. Measurements were performed in triplicates. MS data were analyzed using appropriated software (Clinprot tools, FLEx analysis, Brucker, Massachusetts, USA) as previously described[8],[9].

Clinical symptoms in the injected animals compared to control non-treated animals [1]	Stability to proteases degradation in human serum (percentage of intact peptide) [2]	Compound
did not detected clinical symptoms	constant stability	CC(C)C[C@H](NC(=O)[C@H](CCCCN)NC(=O)[C@H](CCCCN)NC(=O)[C@H](CCCCN)NC(=O)[C@H](CCCCN)NC(=O)[C@@H]1CCCN1C(=O)[C@H](Cc1c[nH]c2ccccc12)NC(=O)[C@H](CCCCN)NC(=O)[C@H](CCCCN)NC(=O)[C@H](Cc1c[nH]c2ccccc12)NC(=O)[C@H](CCCCN)NC(=O)[C@H](CCCCN)NC(=O)[C@H](CCCCN)NC(=O)[C@H](CCCCN)NC(=O)[C@H](CCCCN)NC(=O)[C@H](CCCNC(=N)N)NC(=O)[C@H](CCCCN)NC(=O)[C@@H](N)CCCNC(=N)N)C(=O)N[C@@H](CC(=O)O)C(=O)N[C@@H](CCCNC(=N)N)C(=O)N[C@@H](CC(C)C)C(=O)N[C@@H](CCC(N)=O)C(=O)N[C@@H](CC(C)C)C(=O)N[C@H](C(=O)N[C@@H](CCC(=O)O)C(=O)N[C@@H](Cc1ccccc1)C(=O)N[C@@H](CO)C(=O)N[C@@H](C)C(=O)N[C@@H](Cc1ccccc1)C(=O)N[C@H](C(=O)N[C@@H](CCC(=O)O)C(=O)N1CCC[C@H]1C(=O)N1CCC[C@H]1C(=O)N[C@@H](CC(=O)O)C(=O)N[C@@H](C)C(=O)N[C@H](C(=O)N[C@@H](CC(=O)O)C(=O)O)C(C)C)C(C)C)C(C)C [NLS18-TEAD] (H-RKRKKKKKWKKWPKKKKLDRLQLVEFSAFVEPPDAVD-OH)
did not detected clinical symptoms	–	CC(C)C[C@H](NC(=O)[C@H](CCCCN)NC(=O)[C@H](CCCCN)NC(=O)[C@H](CCCCN)NC(=O)[C@H](CCCCN)NC(=O)[C@@H]1CCCN1C(=O)[C@H](CCCCN)NC(=O)[C@H](CCCCN)NC(=O)[C@H](CCCCN)NC(=O)[C@H](Cc1c[nH]c2ccccc12)NC(=O)[C@H](CCCCN)NC(=O)[C@H](CCCCN)NC(=O)[C@H](Cc1c[nH]c2ccccc12)NC(=O)[C@H](CCCCN)NC(=O)[C@H](CCCCN)NC(=O)[C@H](CCCCN)NC(=O)[C@H](CCCCN)NC(=O)[C@H](CCCCN)NC(=O)[C@H](CCCNC(=N)N)NC(=O)[C@H](CCCCN)NC(=O)[C@@H](N)CCCNC(=N)N)C(=O)N[C@@H](CC(=O)O)C(=O)N[C@@H](CCCNC(=N)N)C(=O)N[C@@H](CC(C)C)C(=O)N[C@@H](CCC(N)=O)C(=O)N[C@@H](CC(C)C)C(=O)N[C@H](C(=O)N[C@@H](CCC(=O)O)C(=O)N[C@@H](Cc1ccccc1)C(=O)N[C@@H](CO)C(=O)N[C@@H](C)C(=O)N[C@@H](Cc1ccccc1)C(=O)N[C@H](C(=O)N[C@@H](CCC(=O)O)C(=O)N1CCC[C@H]1C(=O)N1CCC[C@H]1C(=O)N[C@@H](CC(=O)O)C(=O)N[C@@H](C)C(=O)N[C@H](C(=O)N[C@@H](CC(=O)O)C(=O)O)C(C)C)C(C)C)C(C)C [NLS23-TEAD] (H-RKRKKKKKWKKWKKKPKKKKLDRLQLVEFSAFVEPPDAVD-OH)
